# Measured values taken from paper PMC11475408, “All‐Inorganic Polyoxometalates Act as Superchaotropic Membrane Carriers” (Advanced Materials (Deerfield Beach, Fla.), 2023).
# pEC50: −log10 of the molar value. Where two headings read alike, the source gives them in different places.
# Experiments:
# [1] = test system: methicillin-resistant Staphylococcus aureus (SR3605, ATCC43300); conditions: in combination with β-Lactamase, Mueller-Hinton broth, pH 7.4, 34 °C, cited from earlier work
# Text: page 4: 2. Literature survey Table S1. Survey of experimentally proven membrane penetration of POMs according to a search in Scopus (“polyoxometalate” and “membrane penetration”) up to the submission date of the manuscript.
# [2] = CF transport assay in EYPC⊃CF vesicles (carrier activity); format: biochemical; parameters: key to Carrier activity: ‐ – ‐: No detectable activity at pH 5.5 and 7.4; conditions: for pEC50: 5% error (SD); for Carrier activity: EYPC vesicles, pH 5.5 and 7.4, cargos heptaArg, protamine, polyArg ([AlMo6]: heptaArg and protamine only); for Transport activity (in words): EYPC⊃CF vesicles, neutral pH, carrier then cargo
# Text: The capability of POMs to act as membrane carriers was explored first in large unilamellar vesicles (LUVs) loaded with carboxyfluorescein (CF).^[ [54], [55] ^] We selected […] representative cationic peptides, heptaarginine (heptaArg), heptalysine (heptaLys), protamine, and polyarginine (polyArg), as test cargos. Inside the LUVs, the CF dye was encapsulated at self‐quenching concentrations. With a suitable carrier, heptaArg can be taken up into the vesicles, bind with entrapped CF, and shuttle back to the exterior, diluting the previously quenched CF, and thereby restoring its fluorescence (Figure 1c). In the time‐resolved fluorescence experiments (Figure 2a), to test whether a particular POM acts as molecular carrier, the CF emission was continuously monitored during the addition of the inorganic carrier (t = 60 s) and after injection of the impermeable selected cargo (t = 120 s). Toward the end of the experiment (t = 600 s), the surfactant Triton X‐100 was added to release all the entrapped CF and allow normalization of the intensity data.
# A thin lipid film was prepared by evaporating a lipid solution of EYPC (egg yolk phosphatidylcholine, 25 mg) in CHCl3 (1 mL) with a stream of nitrogen and then dried in vacuo overnight. The dry film was rehydrated with 1 mL buffer (50 mM CF, 10 mM Hepes, pH 7.4 or 50 mM CF, 10 mM Tris, pH 7.4) for 30 min at room temperature, subjected to freeze–thaw cycles (7 times) and extrusions (15 times) through a polycarbonate membrane (pore size 100 nm). Extravesicular components were removed by size exclusion chromatography (NAP‐25 column Sephadex G‐25 DNA grade) with 10 mM Hepes, 107 mM NaCl, pH 7.4, or 10 mM Hepes, 107 mM NaCl, pH 7.4. Phospholipid concentration was calculated by the Stewart assay.^[ [81] ^]
# Acidic vesicles were prepared analogously but the rehydration and elution buffer were 50 mM CF, 10 mM Mes, pH 5.5 and 10 mM Mes, 107 mM NaCl, pH 5.5. respectively.
# Vesicles stock solutions (5–10 µL) were diluted with the corresponding buffer in a disposable plastic cuvette and gently stirred (total volume 2000 µL, final lipid concentration 13 µM). Carboxyfluorescein fluorescence was monitored at λ em = 517 nm (λ ex = 492 nm) as a function of time after addition of POMs at 60 s, analyte at 120 s and Triton X‐100 (24 µL 1.2% wt/vol) at 600 s to lyse the vesicles, for calibration. Fluorescence intensities were normalized to fractional emission as (1) It=It−I0/I∞−I0 where I 0 = I t before POM addition and […] after lysis. For Hill analysis, I t before lysis was defined as transport activity, Y, and plotted against POM concentration, c, and fitted to the Hill Equation (2), to afford the activity in absence of POM, Y 0, the maximal activity, Y max, the concentration needed to achieve 50% of maximal activity, EC 50, and the Hill coefficient, n (2) Y=Y0+Ymax−Y0/1+EC50/c^n
# In the transport measurements, where different carriers (POMs) are tested with the same cargo, the activator efficiency (E) is determined by their capacity to transport the impermeable cargo to the intravesicular region and is characterized by Y max, its maximal activity, and EC 50, the effective activator concentration. An ideal carrier reaches high Y max at low EC 50. To count both factors, the activator efficiency is defined as (3) E=YmaxpEC50/f were pEC 50 is the negative logarithm of the EC 50, and f a scaling factor, which was set to 20.6 to calibrate the highest (previously known) activation efficiency, E, as 10.^[ [55] ^]
# [3] = Hydrolysis/stability of POMs in buffer by NMR; conditions: for Hydrolysis/stability pH 7.5: 10 mM Hepes or Tris, pH 7.4; for Hydrolysis/stability pH 7.5 / Hydrolysis/stability pH 5.5: 107 mM NaCl, NMR, long-term (24 h and longer); for Stability at pH 7.5 by NMR (in words): Hepes or Tris-HCl pH 7.5, 27Al, 31P or 183W NMR, fresh and aged 1-3 days; for Hydrolysis/stability pH 5.5: 10 mM Mes
# Description: First, their long‐term (24 h and longer) fate in aqueous solution (slightly acidic and neutral) was investigated by applying the active NMR nuclei in their composition (Table S9 and Figures S24–S37, see the Supporting Information for details).
# NMR-spectroscopic characterization of identity and stability
# NMR spectroscopy for all POMs tested was performed under experimental conditions.
# [4] = Membrane disruption of liposomes by POM alone (CF fluorescence, DLS); format: biochemical; conditions: higher than 100 µM POM, 10 mM Tris, 107 mM NaCl, pH 7.4
# Description: It should be noted that the addition of POMs alone (without cargo) retained the stability of the liposomes in the studied concentration range (up to 100 µM), that is, neither an increase in CF fluorescence nor changes in size distribution as obtained by dynamic light scattering experiments (DLS, see Figure S4, Supporting Information) were observed, which would have signaled membrane rupture. These negative controls allowed us to proceed to the carrier experiments, with added cargo.
# DLS experiments of the vesicles were carried out on a Malvern Instruments DTS Nano 2000 Zeta‐Sizer. A POM concentration of 100 µM was chosen as default, since this is the highest concentration at which membrane transport was evaluated. The cargo concentration was set to be same as in the transport experiments, namely 10 µM for heptaarginine, 1 µM for protamine, and 0.1 µM for polyarginine. Note that the POMs themselves, with a size of ≈1 nm, fall below the detection limit (>10 nm) of the DLS instrument.
# Figure S3. Transport activity, Y, for polyarginine (0.1 µM) in EYPC[…]CF liposomes as a function of the concentration of the different evaluated POMs. Solid lines correspond to the resulting fit with the Hill equation. Blue squares are data obtained at neutral pH, and red stars data obtained at acidic pH.
# Table S4. Membrane transport parametersa) of active POMs at neutralb) and acidicc) pH.
# HeptaArgd) Protaminee) PolyArgf) carrier pH Hydrolysis/Stability
# Ymax [%]g) EC50h) [µM] E i) Ymax [%] EC50 [µM] E Ymax [%] EC50 [µM] E […]
# Figure S5. Transport kinetics (left pannels), dose response curves (middle pannels) for cargo transport, and size distribution (by DLS, right pannels) for [PW12]3‒ (top) and [SiW12]4‒ (bottom), measured with EYPC[…]CF liposomes at pH 7.4, but preserving the POM solution at pH 1.2 before addition. As shown in panel a, the addition of [PW12]3‒ alone gave a fluorescence increase, pointing to membrane disruption, which was confirmed by DLS (panel c). […]
# CHO‐K1 cells = experiment: FITC-Arg8 uptake in live cells, confocal imaging; format: cell-based, Chinese hamster; conditions: 30 min, 37 °C; for FITC-Arg8 uptake promoted by carrier: carrier 5 µM, 5 min, then FITC-Arg8 5 µM, four biological replicates
# Description: CHO‐K1 cells were plated into µ‐Slide 8‐well plates (ibidi) at a density of ≈1 × 10^5 cells per well (per 1 mL) and incubated for 24 h in Ham's F‐12 medium containing 10% v/v fetal bovine serum and 1.0% penicillin streptomycin at 37 °C in a 5% CO2 atmosphere. The cells were washed twice with Hank's buffer, incubated for 5 min at 37 °C in Ham's F‐12 medium without phenol red with carrier (5 µM), and subsequently in Ham's F‐12 medium without phenol red with 5 µM FITC‐Arg8 for 30 min at 37 °C. Cells in the absence of carrier were used as control. The cells were washed twice with Hank's buffer containing 100 µg mL^−1 heparin and then washed twice with Ham's F‐12 medium without phenol red. The nuclear staining was performed by incubating the cells with 10 µg mL^−1 Hoechst 33 342 (bis‐benzimide H33342 trihydrochloride) for 10 min at 37 °C. Cells were directly imaged as stated above.
# [5] = CF assay, EYPC LUVs, 0.1 µM polyArg, pH 7.4, read-out: PolyArg EC 50
# [6] = CF assay, EYPC LUVs, 0.1 µM polyArg, pH 7.4, ±2% error (SD)
# [7] = EYPC LUVs, 0.1 µM polyArg, pH 7.4, f = 20.6, 10% error
molecule,measurement,setting,value
Cc1onc(-c2ccccc2)c1C(=O)N[C@@H]1C(=O)N2[C@@H]1SC(C)(C)[C@@H]2C(=O)O [oxacillin],MIC,[1]; ref [8],256 µg/mL
same,MIC,[1]; ref [9],256 µg/mL
Na3[Al^III(OH)6Mo^VI 6O18]·2H2O [[AlMo6]^3‒],pEC50,[2]; [5],4.96
same,PolyArg Y max,[2]; [6],33%
same,PolyArg E (activation efficiency),[2]; [7],3.1
same,Carrier activity,[2],‐ – ‐ ^k)
same,Transport activity (in words),[2],"incipient transport activity, but only for polyarginine as cargo"
same,Hydrolysis/stability pH 7.5,[3],Stable
(C4H12N)4[α‐HAl^IIIGe^IVW^VI 11O39(H2O)]·11H2O [[AlGeW11]^5‒],Carrier activity,[2],‐ – ‐ ^k)
same,Hydrolysis/stability pH 7.5,[3],Stable
same,Stability at pH 7.5 by NMR (in words),[3],integrity at pH 7.5
K4[α‐Si^IVW^VI 12O40]·14H2O [[SiW12]^4‒],Carrier activity,[2],"‐ – ‐ ^k) , ^m)"
same,Cargo transport with POM solution kept at pH 1.2,"[2]; EYPC⊃CF liposomes at pH 7.4, POM solution preserved at pH 1.2 before addition","showed the desired cargo transport at acidic pH, without membrane disruption"
same,Transport activity (in words),[2],neither an interaction with the membrane nor cargo transport
same,Vesicle lysis at higher concentrations,[4],led to vesicle lysis
same,Stability at pH 7.5 by NMR (in words),[3],[SiIVWVI11O39]8‒ is predominant
5(6)‐fluorescein isothiocyanate‐labelled octaarginine [FITC‐Arg8],Uptake of FITC-Arg8 without carrier,CHO‐K1 cells; FITC-Arg8 5 µM,minor punctate fluorescence
B12Br12 ^2‒ [reference compound],FITC-Arg8 uptake promoted by carrier,CHO‐K1 cells,did not achieve efficient uptake
same,Hydrolysis/stability pH 7.5,[3],Stable
same,Hydrolysis/stability pH 5.5,[3],Stable
"O=C(O)CCCc1ccc2ccc3cccc4ccc1c2c34 [PyBu^‒, pyrenebutyrate, reference compound]",HeptaArg Y max,"[2]; CF assay, EYPC LUVs, 13 µM lipid, 10 µM heptaArg, 10 mM Hepes or Tris, 107 mM NaCl, pH 7.4, 10 min, Hill fit, triplicates, ±2% error (SD)",100%
same,pEC50,[2]; [5],4.92
same,PolyArg Y max,[2]; [6],91%
same,pEC50,"[2]; CF assay, EYPC LUVs, 1 µM protamine, pH 7.4, read-out: Protamine EC 50",4.41
same,Protamine Y max,"[2]; CF assay, EYPC LUVs, 1 µM protamine, pH 7.4, ±2% error (SD)",77%
same,pEC50,"[2]; CF assay, EYPC LUVs, 10 µM heptaArg, pH 7.4, carrier concentration for 50% of Ymax, read-out: HeptaArg EC 50",4.00
same,PolyArg E (activation efficiency),[2]; [7],8.5
same,Protamine E (activation efficiency),"[2]; EYPC LUVs, 1 µM protamine, pH 7.4, f = 20.6, 10% error",5.3
same,HeptaArg E (activation efficiency),"[2]; EYPC LUVs, 10 µM heptaArg, pH 7.4, E = Ymax(pEC50/f), f = 20.6, 10% error",4.8
same,Efficacy when the sequence of addition was inverted,"[2]; heptaarginine 10 µM, cargo before carrier (Figure S6)",significantly reduces its activity
same,FITC-Arg8 uptake promoted by carrier,CHO‐K1 cells,did not achieve efficient uptake
same,Hydrolysis/stability pH 7.5,[3],Stable
same,Hydrolysis/stability pH 5.5,[3],Stable
Na5[α‐Al^IIIW^VI 12O40]·12H2O [[AlW12]^5‒],Carrier activity,[2],‐ – ‐ ^k)
same,Hydrolysis/stability pH 7.5,[3],Stable
same,Stability at pH 7.5 by NMR (in words),[3],stable at pH 7.5
